{"source": "patent US20170296498A1", "about": "“Rapid Relief of Motor Fluctuations in Parkinson's Disease” (Civitas Therapeutics, Inc., priority 2014, published 2017)", "test_system": "Parkinson's disease patients in the OFF state", "test": "Phase 2 study of pulmonary levodopa in PD patients: plasma levodopa concentration vs UPDRS", "format": "in vivo, human", "conditions": "FIG. 8, plasma concentration vs UPDRS", "protocol": "The twenty four PD (24) patients treated in this study underwent serial evaluations of L-dopa plasma levels, motor response, and safety at each visit. The patients were administered the study drug in the OFF state with the serial evaluations starting prior to dosing and continuing for up to 180 minutes post-dose. Motor function was measured using a tapping test, the Unified Parkinson's Disease Rating Scale Part III (UPDRS III), and subjective evaluation of “meaningful” ON and OFF. Safety parameters monitored included pulmonary function, clinical laboratory data, EGCs, and vital signs (blood pressure, heart rate, and orthostatic blood pressure). This study was designed to measure the time, magnitude, and durability of pulmonary levodopa's effect on motor function, to evaluate the safety and tolerability of pulmonary levodopa in Parkinson's disease patients.\nIn FIG. 8, patient's plasma levodopa concentrations are being compared to UPDRS scores. UPDRS is a standard test for Parkinson's disease patients to test their response to drug treatment and their disease progression. […] The different baseline levels of levodopa plasma relate to the fact that each patient has a different effective dose or effective concentration for the levodopa to have an effect on each patient. […]"}
{"smiles": "N[C@@H](Cc1ccc(O)c(O)c1)C(=O)O", "note": "[L-Dopa, levodopa]", "values": [{"measurement": "levodopa plasma concentration difference between being in the off state and in the on state", "value": "200 to 400", "unit": "ng/mL"}]}
